Data as given in DBAASP.
Values after ≈ are worked out from the molar mass of the structure shown. Values belong to the molecule of their own block, whether it stands above or below them.

Assays:
Test in all cases: ≥ marks a high value that may be exact or a test limit, other limits are often not marked, values filed in µg/mL are converted to µM
[1] = test system: Bacillus subtilis KCTC 3068
Enterococcus faecalis VR = test system: Enterococcus faecalis VR
Enterococcus faecalis = test system: Enterococcus faecalis
Enterococcus faecium VR = test system: Enterococcus faecium VR
Enterococcus faecium = test system: Enterococcus faecium
[2] = test system: Escherichia coli KCTC 1682
[3] = test system: Pseudomonas aeruginosa KCTC 1637
[4] = test system: Salmonella typhimurium KCTC 1926
[5] = test system: Staphylococcus aureus KCTC 1621
Staphylococcus aureus MR = test system: Staphylococcus aureus MR
[6] = test system: Staphylococcus epidermidis KCTC 1917
[7] = test system: Acinetobacter baumannii ATCC 15308
Citrobacter sp. = test system: Citrobacter sp.
Enterobacter cloacae = test system: Enterobacter cloacae
[8] = test system: Escherichia coli ATCC 25922
Klebsiella pneumoniae = test system: Klebsiella pneumoniae
[9] = test system: Pseudomonas aeruginosa ATCC 15442
[10] = test system: Staphylococcus aureus ATCC 25923
Staphylococcus aureus = test system: Staphylococcus aureus
Streptococcus pneumoniae = test system: Streptococcus pneumoniae
[11] = test system: Bacillus cereus ATCC 11778
[12] = test system: Klebsiella pneumoniae ATCC 700603
[13] = test system: Pseudomonas aeruginosa ATCC 27853
[14] = test system: Salmonella enterica subsp. enterica serovar Enteritidis ATCC 13076
[15] = test system: Serratia marcescens ATCC 21202
[16] = test system: Staphylococcus aureus ATCC 29213
[17] = test system: Streptococcus pyogenes ATCC 19615
[18] = test system: Aspergillus niger ATCC 16404
[19] = test system: Candida albicans ATCC 10231
[20] = test system: Candida glabrata ATCC 15126
[21] = test system: Enterococcus faecalis PCM 2673
[22] = test system: Escherichia coli ATCC 23506
[23] = test system: Pseudomonas aeruginosa ATCC 9027
[24] = test system: Staphylococcus aureus ATCC 9144
[25] = test system: Streptococcus pneumoniae ATCC 49619
[26] = test system: Streptococcus gordonii ATCC 10558
[27] = test system: Streptococcus oralis ATCC 9811
[28] = test system: Streptococcus sanguinis ATCC 10556
[29] = test system: Bacillus subtilis CMCC 63501
Candida albicans CA2761 = test system: Candida albicans CA2761
[30] = test system: Candida albicans CGMCC 2.2086
[31] = test system: Candida krusei CGMCC 2.1857
[32] = test system: Candida tropicalis CGMCC 2.1975
Escherichia coli EC183 = test system: Escherichia coli EC183
Escherichia coli UB1005 = test system: Escherichia coli UB1005
[33] = test system: Salmonella enterica subsp. enterica serovar Typhimurium C77-31
[34] = test system: Staphylococcus epidermidis ATCC 12228

- MIC [1]: 30 µM
- MIC (Enterococcus faecalis VR): 30 µM
- MIC (Enterococcus faecalis): 30 µM
- MIC (Enterococcus faecium VR): 30 µM
- MIC (Enterococcus faecium): 30 µM
- MIC [2]: 15 µM
- MIC [3]: 30 µM
- MIC [4]: 30 µM
- MIC [5]: 30 µM
- MIC (Staphylococcus aureus MR): 30 µM
- MIC [6]: 15 µM
Structure (SMILES): CC(C)C[C@H](NC(=O)[C@H](CC(C)C)NC(=O)[C@H](CS)NC(=O)[C@H](Cc1cnc[nH]1)NC(=O)[C@H](C)NC(=O)[C@H](C)N)C(=O)N[C@@H](CCCN=C(N)N)C(=O)NCC(=O)N[C@@H](CC(N)=O)C(=O)N[C@@H](CCCN=C(N)N)C(N)=O [AAHCLLRGNR]

- MIC [7]: 18.2 µM (≈ 31.2 µg/mL)
- MIC (Citrobacter sp.): ≥ 146 µM
- MIC (Enterobacter cloacae): ≥ 146 µM
- MIC [8]: 4.55 µM (≈ 7.81 µg/mL)
- MIC (Klebsiella pneumoniae): > 146 µM
- MIC [9]: 18.2 µM (≈ 31.2 µg/mL)
- MIC [10]: 4.55 µM (≈ 7.81 µg/mL)
- MIC (Staphylococcus aureus): 4.55 µM (≈ 7.81 µg/mL)
- MIC (Streptococcus pneumoniae): 4.55 µM (≈ 7.81 µg/mL)
Structure (SMILES): CC[C@H](C)[C@H](NC(=O)[C@H](CC(C)C)NC(=O)CNC(=O)CNC(=O)[C@H](CC(C)C)NC(=O)[C@@H](N)Cc1ccccc1)C(=O)N[C@@H](CCCCN)C(=O)N[C@@H](Cc1c[nH]c2ccccc12)C(=O)N[C@@H](Cc1c[nH]c2ccccc12)C(=O)N1CCC[C@H]1C(=O)N[C@@H](Cc1c[nH]c2ccccc12)C(=O)N[C@@H](CCCN=C(N)N)C(=O)N[C@@H](CCCN=C(N)N)C(N)=O [FLGGLIKWWPWRR]

- MIC [11]: 17.8 µM (≈ 53.4 µg/mL)
- MIC [8]: 9.35 µM (≈ 28 µg/mL)
- MIC [12]: 9.35 µM (≈ 28 µg/mL)
- MIC [13]: > 33.3 µM
- MIC [14]: 17.8 µM (≈ 53.4 µg/mL)
- MIC [15]: 9.35 µM (≈ 28 µg/mL)
- MIC [16]: 9.35 µM (≈ 28 µg/mL)
- MIC [17]: 17.8 µM (≈ 53.4 µg/mL)
Structure (SMILES): CC[C@H](C)[C@H](NC(=O)[C@H](CC(=O)O)NC(=O)[C@H](CCSC)NC(=O)[C@H](CC(C)C)NC(=O)CN)C(=O)N[C@@H](Cc1ccccc1)C(=O)N[C@@H](CCCCN)C(=O)N[C@H](C(=O)N[C@@H](C)C(=O)N[C@H](C(=O)N[C@@H](CC(N)=O)C(=O)N[C@@H](CCCCN)C(=O)N[C@@H](CC(C)C)C(=O)N[C@@H](CC(C)C)C(=O)N[C@@H](C)C(=O)N[C@@H](C)C(=O)NCC(=O)N[C@@H](CCSC)C(=O)N[C@@H](CC(N)=O)C(=O)N[C@@H](CCCCN)C(=O)N1CCC[C@H]1C(=O)N[C@@H](CCCN=C(N)N)C(=O)N[C@H]1CSSC[C@@H](C(=O)O)NC(=O)[C@H](Cc2cnc[nH]2)NC(=O)[C@H](C)NC(=O)[C@H](C)NC(=O)[C@H](CCCCN)NC1=O)C(C)C)C(C)C [GLMDIFKVAVNKLLAAGMNKPRCKAAHC]

- MIC [18]: 12.9 µM (≈ 32 µg/mL)
- MIC [19]: 103 µM (≈ 256 µg/mL)
- MIC [20]: ≥ 51.7 µM
- MIC [21]: 25.8 µM (≈ 64 µg/mL)
- MIC [22]: 0.807 µM (≈ 2 µg/mL)
- MIC [8]: 3.23 µM (≈ 8 µg/mL)
- MIC [12]: 0.101 µM (≈ 0.25 µg/mL)
- MIC [23]: 0.807 µM (≈ 2 µg/mL)
- MIC [10]: 51.7 µM (≈ 128 µg/mL)
- MIC [24]: 25.8 µM (≈ 64 µg/mL)
- MIC [25]: 1.61 µM (≈ 4 µg/mL)
Structure (SMILES): CC[C@H](C)[C@H](NC(=O)CNC(=O)[C@H](CCCCN)NC(=O)[C@H](Cc1ccccc1)NC(=O)[C@H](CC(C)C)NC(=O)[C@H](CCCCN)NC(=O)[C@H](CCCCN)NC(=O)[C@H](C)NC(=O)[C@H](CCCCN)NC(=O)[C@H](CCCCN)NC(=O)[C@H](Cc1ccccc1)NC(=O)CNC(=O)[C@H](CCCCN)NC(=O)[C@H](C)NC(=O)[C@H](Cc1ccccc1)NC(=O)[C@@H](NC(=O)[C@H](CCCCN)NC(=O)[C@@H](NC(=O)[C@H](CC(C)C)NC(=O)[C@H](CCCCN)NC(=O)[C@@H](N)CCCCN)[C@@H](C)CC)C(C)C)C(=O)NCC(N)=O [KKLIKVFAKGFKKAKKLFKGIG]

- MIC [26]: ≥ 186 µM
- MIC [27]: ≥ 155 µM
- MIC [28]: ≥ 186 µM
Structure (SMILES): CC[C@H](C)[C@H](NC(=O)CNC(=O)CNC(=O)CNC(=O)CNC(=O)[C@H](Cc1c[nH]c2ccccc12)NC(=O)[C@@H](NC(=O)[C@H](Cc1cnc[nH]1)NC(=O)[C@H](CCSC)NC(=O)CNC(=O)[C@@H]1CCCN1C(=O)[C@H](C)NC(=O)[C@H](CC(=O)O)NC(=O)[C@@H]1CCCN1C(=O)[C@H](CC(C)C)NC(=O)[C@H](CCCCN)NC(=O)[C@@H](N)CCCN=C(N)N)[C@@H](C)O)C(=O)N[C@@H](CC(N)=O)C(=O)N[C@H](C(=O)N[C@@H](CC(C)C)C(=O)N[C@@H](CCC(N)=O)C(=O)N[C@@H](CCCCN)C(=O)N[C@@H](Cc1ccc(O)cc1)C(=O)N[C@@H](Cc1ccc(O)cc1)C(=O)N[C@@H](CS)C(=O)N[C@@H](CCCN=C(N)N)C(=O)N[C@H](C(=O)N[C@@H](CCCN=C(N)N)C(=O)NCC(=O)O)C(C)C)[C@@H](C)O [RKLPDAPGMHTWGGGGINTLQKYYCRVRG]

- MIC [29]: 2 µM (≈ 3.73 µg/mL)
- MIC (Candida albicans CA2761): ≥ 128 µM
- MIC [30]: ≥ 64 µM
- MIC [31]: 8 µM (≈ 14.9 µg/mL)
- MIC [32]: 2 µM (≈ 3.73 µg/mL)
- MIC [8]: 8 µM (≈ 14.9 µg/mL)
- MIC (Escherichia coli EC183): 2 µM (≈ 3.73 µg/mL)
- MIC (Escherichia coli UB1005): 4 µM (≈ 7.47 µg/mL)
- MIC [33]: 8 µM (≈ 14.9 µg/mL)
- MIC [10]: 32 µM (≈ 59.7 µg/mL)
- MIC [16]: 32 µM (≈ 59.7 µg/mL)
- MIC [34]: 32 µM (≈ 59.7 µg/mL)
Structure (SMILES): CC[C@H](C)[C@H](NC(=O)[C@H](Cc1c[nH]c2ccccc12)NC(=O)[C@H](CCCCN)NC(=O)[C@H](CC(C)C)NC(=O)[C@@H](NC(=O)[C@H](CCCCN)NC(=O)CNC(=O)[C@@H](NC(=O)[C@H](CCCCN)NC(=O)[C@H](CCCCN)NC(=O)[C@H](CC(C)C)NC(=O)[C@H](CCCN=C(N)N)NC(=O)[C@H](CCCCN)NC(=O)[C@H](CCCN=C(N)N)NC(=O)[C@@H](N)[C@@H](C)O)[C@@H](C)CC)C(C)C)C(N)=O [TRKRLKKIGKVLKWI]
